The text below walks through data of patent US12252524B2, “GIP/GLP1 co-agonist compounds” (Eli Lilly and Company, priority 2018, dated 2025).

Each structure is given as a SMILES string. Numbered stars: 1 amine (or outer) side, 2 acyl side, 3 side chain; on linkers, the order of the positions; unused ones are H or OH. Square brackets hold non-standard residues; d marks the D form. Side chains are listed from the residue outwards. Peptide text beside a SMILES is read from it. * marks the point of attachment. C20 diacid = O=C(O)CCCCCCCCCCCCCCCCCCC(=O)*; C18 diacid = O=C(O)CCCCCCCCCCCCCCCCC(=O)*; γGlu = O=C(O)[C@H](CCC(=O)[*:2])N[*:1]; αMeF = C[C@](N)(Cc1ccccc1)C(=O)O; αMeL = CC(C)C[C@](C)(N)C(=O)O; AEEA = NCCOCCOCC(=O)O; Aib = CC(C)(N)C(=O)O

One assay concerns the target T1, human GIP receptor (Homo sapiens, UniProt P48546).
T1 construct: expressed in transfected cells; crude membranes
T1 sequence (P48546 22-466): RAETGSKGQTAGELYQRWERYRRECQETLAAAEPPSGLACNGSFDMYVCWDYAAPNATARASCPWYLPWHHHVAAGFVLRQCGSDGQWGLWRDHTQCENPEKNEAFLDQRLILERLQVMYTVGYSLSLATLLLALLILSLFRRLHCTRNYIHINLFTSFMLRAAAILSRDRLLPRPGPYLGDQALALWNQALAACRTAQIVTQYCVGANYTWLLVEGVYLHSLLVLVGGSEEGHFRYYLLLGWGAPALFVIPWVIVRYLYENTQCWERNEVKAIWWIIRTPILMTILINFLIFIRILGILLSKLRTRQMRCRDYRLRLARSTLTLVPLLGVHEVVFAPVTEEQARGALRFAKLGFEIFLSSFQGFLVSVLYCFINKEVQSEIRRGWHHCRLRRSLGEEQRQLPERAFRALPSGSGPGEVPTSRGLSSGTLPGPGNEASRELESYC
The assay can be described thus: [125I]-GIP binding (SPA), human GIP receptor. Particulars: read-out: hGIPR Ki, nM (SEM, n).

A further assay has as its target human GLP-1R (Homo sapiens, UniProt P43220). The assay can be described thus: GLP-1R CHO cell β-arrestin recruitment assay. It is filed as cell-based. Also noted: host or cells: CHO-K1 PathHunter cells, assay-ready frozen. As to conditions: for EC50: CHO-K1 cells, PathHunter β-arrestin-2 recruitment, 0.1% casein, read-out: hGLP1R B-Arrestin2 Rel EC50 uM (SEM, n); for hGLP1R B-Arrestin2 % Top: normalized to GLP-1 maximum control. In short, it runs like this: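 Peptide-induced β-arrestin-2 recruitment measured by enzyme-fragment complementation luminescence after 90 min at 37 °C plus 60 min detection at RT.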
Background: Activated receptors often draw arrestin, which recruitment assays turn into a signal.

Chain of human GLP-1R (P43220 24-463): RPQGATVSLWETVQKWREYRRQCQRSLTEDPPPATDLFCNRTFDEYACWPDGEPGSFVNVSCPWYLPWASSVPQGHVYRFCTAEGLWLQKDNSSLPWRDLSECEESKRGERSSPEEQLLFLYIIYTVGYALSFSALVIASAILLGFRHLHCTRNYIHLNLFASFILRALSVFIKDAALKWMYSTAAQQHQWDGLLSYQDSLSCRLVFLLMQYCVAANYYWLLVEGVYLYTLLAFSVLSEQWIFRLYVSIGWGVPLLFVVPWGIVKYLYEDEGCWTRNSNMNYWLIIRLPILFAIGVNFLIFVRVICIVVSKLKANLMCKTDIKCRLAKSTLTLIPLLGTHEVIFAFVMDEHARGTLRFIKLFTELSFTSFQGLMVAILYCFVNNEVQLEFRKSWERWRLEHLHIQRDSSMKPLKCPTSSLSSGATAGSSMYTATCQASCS

Usually Ki stands for a measure of affinity in units of concentration, obtained from inhibition or displacement. Broadly, the EC50 is the midpoint of the concentration-response curve. For `CC[C@H](C)[C@H](NC(=O)[C@H](CC(C)C)NC(=O)[C@H](Cc1ccc(O)cc1)NC(=O)[C@H](CCC(=O)O)NC(=O)[C@@H](NC(=O)[C@H](Cc1ccccc1)NC(=O)[C@H](C)NC(=O)C(C)(C)NC(=O)[C@H](CCC(N)=O)NC(=O)[C@H](C)NC(=O)[C@H](CCCCNC(=O)COCCOCCNC(=O)COCCOCCNC(=O)CC[C@H](NC(=O)CCCCCCCCCCCCCCCCC(=O)O)C(=O)O)NC(=O)[C@H](CCC(=O)O)NC(=O)[C@H](CC(=O)O)NC(=O)[C@H](CC(C)C)NC(=O)[C@](C)(CC(C)C)NC(=O)[C@@H](NC(=O)[C@H](CO)NC(=O)[C@H](Cc1ccc(O)cc1)NC(=O)[C@H](CC(=O)O)NC(=O)[C@H](CO)NC(=O)[C@@H](NC(=O)[C@H](Cc1ccccc1)NC(=O)[C@@H](NC(=O)CNC(=O)[C@H](CCC(=O)O)NC(=O)C(C)(C)NC(=O)[C@@H](N)Cc1ccc(O)cc1)[C@@H](C)O)[C@@H](C)O)[C@@H](C)CC)[C@@H](C)CC)C(=O)N[C@@H](CCC(=O)O)C(=O)NCC(=O)NCC(=O)N1CCC[C@H]1C(=O)N[C@@H](CO)C(=O)N[C@@H](CO)C(=O)NCC(N)=O` [Example 303] (H-Y[Aib]EGTFTSDYSI[αMeL]LDEK([AEEA-AEEA-γGlu-C18 diacid])AQ[Aib]AFIEYLIEGGPSSG-NH2), the Ki on human GIP receptor was 0.058 nM. Besides, at human GLP-1R, the EC50 worked out at 0.0179 µM and the “hGLP1R B-Arrestin2 % Top” value stood at 47.7%.
The corresponding values for `CC[C@H](C)[C@H](NC(=O)[C@H](CC(C)C)NC(=O)[C@H](Cc1ccc(O)cc1)NC(=O)[C@H](CCC(=O)O)NC(=O)[C@@H](NC(=O)[C@H](Cc1ccccc1)NC(=O)[C@H](CCC(=O)O)NC(=O)C(C)(C)NC(=O)[C@H](CCC(N)=O)NC(=O)[C@H](C)NC(=O)[C@H](CCCCNC(=O)COCCOCCNC(=O)COCCOCCNC(=O)CC[C@H](NC(=O)CCCCCCCCCCCCCCCCCCC(=O)O)C(=O)O)NC(=O)[C@H](CCCCN)NC(=O)[C@H](CC(=O)O)NC(=O)[C@H](CC(C)C)NC(=O)[C@](C)(CC(C)C)NC(=O)[C@@H](NC(=O)[C@H](CO)NC(=O)[C@H](Cc1ccc(O)cc1)NC(=O)[C@H](CC(=O)O)NC(=O)[C@H](CO)NC(=O)[C@@H](NC(=O)[C@H](Cc1ccccc1)NC(=O)[C@@H](NC(=O)CNC(=O)[C@H](CCC(=O)O)NC(=O)C(C)(C)NC(=O)[C@@H](N)Cc1ccc(O)cc1)[C@@H](C)O)[C@@H](C)O)[C@@H](C)CC)[C@@H](C)CC)C(=O)N[C@@H](C)C(=O)NCC(=O)NCC(=O)N1CCC[C@H]1C(=O)N[C@@H](CO)C(=O)N[C@@H](CO)C(=O)NCC(=O)N[C@@H](C)C(=O)N1CCC[C@H]1C(=O)N1CCC[C@H]1C(=O)N1CCC[C@H]1C(=O)N[C@@H](CO)C(N)=O` [Example 289] (H-Y[Aib]EGTFTSDYSI[αMeL]LDKK([AEEA-AEEA-γGlu-C20 diacid])AQ[Aib]EFIEYLIAGGPSSGAPPPS-NH2) are 0.0457 nM, 0.0124 µM and 51.3%.
The corresponding values for `CC[C@H](C)[C@H](NC(=O)[C@H](CC(C)C)NC(=O)[C@H](Cc1ccc(O)cc1)NC(=O)[C@H](CCC(=O)O)NC(=O)[C@@H](NC(=O)[C@H](Cc1ccccc1)NC(=O)[C@H](C)NC(=O)C(C)(C)NC(=O)[C@H](CCC(N)=O)NC(=O)[C@H](C)NC(=O)[C@H](CCCCNC(=O)COCCOCCNC(=O)COCCOCCNC(=O)CC[C@H](NC(=O)CCCCCCCCCCCCCCCCCCC(=O)O)C(=O)O)NC(=O)[C@H](CCCCN)NC(=O)[C@H](CC(=O)O)NC(=O)[C@H](CC(C)C)NC(=O)[C@H](CC(C)C)NC(=O)[C@@H](NC(=O)[C@H](CO)NC(=O)[C@H](Cc1ccc(O)cc1)NC(=O)[C@H](CC(=O)O)NC(=O)[C@H](CO)NC(=O)[C@@H](NC(=O)[C@H](Cc1ccccc1)NC(=O)[C@@H](NC(=O)CNC(=O)[C@H](CCC(=O)O)NC(=O)C(C)(C)NC(=O)[C@@H](N)Cc1ccc(O)cc1)[C@@H](C)O)[C@@H](C)O)[C@@H](C)CC)[C@@H](C)CC)C(=O)N[C@@H](C)C(=O)NCC(=O)NCC(=O)N1CCC[C@H]1C(=O)N[C@@H](CO)C(=O)N[C@@H](CO)C(=O)NCC(=O)N[C@@H](C)C(=O)N1CCC[C@H]1C(=O)N1CCC[C@H]1C(=O)N1CCC[C@H]1C(=O)N[C@@H](CO)C(N)=O` [Example 288] (H-Y[Aib]EGTFTSDYSILLDKK([AEEA-AEEA-γGlu-C20 diacid])AQ[Aib]AFIEYLIAGGPSSGAPPPS-NH2; N-terminus assumed) are 0.058 nM, 0.00674 µM and 21.3%.
The corresponding values for `CC[C@H](C)[C@H](NC(=O)[C@H](CC(C)C)NC(=O)[C@H](Cc1ccc(O)cc1)NC(=O)[C@H](CCC(=O)O)NC(=O)[C@@H](NC(=O)[C@H](Cc1ccccc1)NC(=O)[C@H](C)NC(=O)C(C)(C)NC(=O)[C@H](CCC(N)=O)NC(=O)[C@H](C)NC(=O)[C@H](CCCCNC(=O)COCCOCCNC(=O)COCCOCCNC(=O)CC[C@H](NC(=O)CCCCCCCCCCCCCCCCC(=O)O)C(=O)O)NC(=O)[C@H](CCCCN)NC(=O)[C@H](CC(=O)O)NC(=O)[C@H](CC(C)C)NC(=O)[C@H](CC(C)C)NC(=O)[C@@H](NC(=O)[C@H](CO)NC(=O)[C@H](Cc1ccc(O)cc1)NC(=O)[C@H](CC(=O)O)NC(=O)[C@H](CO)NC(=O)[C@@H](NC(=O)[C@](C)(Cc1ccccc1)NC(=O)[C@@H](NC(=O)CNC(=O)[C@H](CCC(=O)O)NC(=O)C(C)(C)NC(=O)[C@@H](N)Cc1ccc(O)cc1)[C@@H](C)O)[C@@H](C)O)[C@@H](C)CC)[C@@H](C)CC)C(=O)N[C@@H](CCC(=O)O)C(=O)NCC(=O)NCC(=O)N1CCC[C@H]1C(=O)N[C@@H](CO)C(=O)N[C@@H](CO)C(=O)NCC(N)=O` [Example 301] (H-Y[Aib]EGT[αMeF]TSDYSILLDKK([AEEA-AEEA-γGlu-C18 diacid])AQ[Aib]AFIEYLIEGGPSSG-NH2) are 0.0273 nM, 0.00267 µM and 93.7%.
For the molecule `CC[C@H](C)[C@H](NC(=O)[C@H](CC(C)C)NC(=O)[C@H](Cc1ccc(O)cc1)NC(=O)[C@H](CCC(=O)O)NC(=O)[C@@H](NC(=O)[C@H](Cc1ccccc1)NC(=O)[C@H](C)NC(=O)C(C)(C)NC(=O)[C@H](CCC(N)=O)NC(=O)[C@H](C)NC(=O)[C@H](CCCCNC(=O)COCCOCCNC(=O)COCCOCCNC(=O)CC[C@H](NC(=O)CCCCCCCCCCCCCCCCC(=O)O)C(=O)O)NC(=O)[C@H](CCCCN)NC(=O)[C@H](CC(=O)O)NC(=O)[C@H](CC(C)C)NC(=O)[C@H](CC(C)C)NC(=O)[C@@H](NC(=O)[C@H](CO)NC(=O)[C@H](Cc1ccc(O)cc1)NC(=O)[C@H](CC(=O)O)NC(=O)[C@H](CO)NC(=O)[C@@H](NC(=O)[C@H](Cc1ccccc1)NC(=O)[C@@H](NC(=O)CNC(=O)[C@H](CCC(=O)O)NC(=O)C(C)(C)NC(=O)[C@@H](N)Cc1ccc(O)cc1)[C@@H](C)O)[C@@H](C)O)[C@@H](C)CC)[C@@H](C)CC)C(=O)N[C@@H](C)C(=O)NCC(=O)NCC(=O)N1CCC[C@H]1C(=O)N[C@@H](CO)C(=O)N[C@@H](CO)C(=O)NCC(=O)N[C@@H](C)C(=O)N1CCC[C@H]1C(=O)N1CCC[C@H]1C(=O)N1CCC[C@H]1C(=O)N[C@@H](CO)C(N)=O` [Example 316] (H-Y[Aib]EGTFTSDYSILLDKK([AEEA-AEEA-γGlu-C18 diacid])AQ[Aib]AFIEYLIAGGPSSGAPPPS-NH2), the Ki at human GIP receptor was 0.0418 nM. On human GLP-1R, the EC50 was 0.00608 µM and the “hGLP1R B-Arrestin2 % Top” value stood at 26.1%.
